One data set has as its target T1, HCV NS3/4A protease (Hepatitis C virus genotype 1b, UniProt O92972).
T1 construct: HCV NS3/4A protease; purchased AnaSpec, San Jose, Calif., USA lot# Lot 046-047 (screening); lot# Lot 046-079 (mechanism study); catalogue number not given
As to the kind of experiment: HCV protease inhibition assay (SensoLyte 520 HCV Protease Assay Kit, FRET peptide substrate). The class given is biochemical. The following applies: for IC50: enzyme 0.5 μg/ml, 30 min at room temperature (28° C.), read-out: IC50 against HCV protease (converted). The source says: Since the mycelium of Antrodia cinnamomea was recently reported to be clinically effective for hepatitis patients infected with HCV (Akiba T et al. 2007. Clinical study of Shoshi on Japanese hepatitis patients infected with C type hepatitis virus. The second Taiwan and Japan Symposium on Antrodia cinnamomea, Abst. pp. 82-98), a SensoLyte™ 520 HCV protease assay kit was applied to investigate the HCV-protease inhibitory activity of the isolated antrodins, the metabolites of antrodin C as well as one metabolite analogue. The assay method with a quenched-fluorogenic peptide substrate can be used for measure the activity of inhibitors as well as for continuous recording of the progress of the enzyme reaction.
The mode of inhibition was kinetically analyzed by plotting the enzyme activity at different concentrations of the substrate (10, 50, 100 and 200 times dilution of the substrate stocking solution) with (5 μg/ml, and 10 μg/ml) and without [0 μg/ml (DMSO)] compound 1.
HCV NS3/4A protease (lot# Lot 046-047 for the screening and lot# Lot 046-079 for the mechanism study) and SensoLyte™ 520 HCV Protease Assay Kit *Fluorimetric* (lot# AK 71147-1005) were purchased from AnaSpec, San Jose, Calif., USA. The substrate was a 5-FAM/QXL™520 FRET peptide based on the sequence of Ac-Asp-Glu-Asp(EDANS)-Glu-Glu-Abu-Ψ-[COO]Ala-Ser-Lys(DABCYL)-NH2. The assay was carried out on BD Falcon™ Microtest™384-well 120 μl black assay plates (lot#05391155). Fluorescence was measured by TECAN GENios plate reader at excitation/emission 485/530 nm Chemical compounds. Antrodins A-E (compounds 1-5) were isolated from the mycelium of Antrodia cinnamomea as reported (Nakamura et al., 2004. Five new maleic and succinic acid derivatives from the mycelium of Antrodia comphorata and their cytotoxic effects on LLC tumor cell line. J Nat Prod 67: 46-48). Embelin used as a positive control was isolated in our laboratory in previous work (Hussein et al., 2000, Inhibitory effects of Sudanese medicinal plant extracts on hepatitis C virus (HCV) Protease. Phytother Res 14: 510-516). Compounds 6, 7a and 7b were detected as the metabolites of antrodin C in vivo. Compounds 7a and 7b were un-separable due to the equilibrium of these two compounds through compound 1. It was thus used for the assay as a mixture of compounds 1, 7a and 7b and named 7. Compound 8 was an analogue of another metabolite whose glycine group was supposed to connect to the other carboxyl group in the structure.
Compound 6 was dissolved in H2O and other compounds were dissolved in DMSO for the assay. To each well were added 2 μl of respective compound solution and 8 μl of freshly diluted enzyme (0.5 μg/ml). The reaction was started by adding 10 μl of freshly diluted substrate (100 times dilution of a DMSO stocking solution). After being incubated at room temperature (28° C.) for 30 min, the fluorescence intensities were measured at Ex/Em=485 nm/535 nm. Inhibition percentages were calculated as 100×(Fvehicle−Fsample)/Fvehicle=% inhibition, where F is the fluorescence value of vehicle control or of compound minus the fluorescence of the substrate control.

Data set [1] deals with Propionicbacterium acnes and lipopolysaccharide treated mice. The settings on record: cited from earlier work.
For data set [2] the following is noted: cited from earlier work.

Each structure is given as a SMILES string. A value given as a limit tells only on which side of the number the result lay.

As a reminder, the IC50 is the midpoint of a concentration-inhibition curve.

T1 sequence (O92972 1013-1207, looked up, natural form): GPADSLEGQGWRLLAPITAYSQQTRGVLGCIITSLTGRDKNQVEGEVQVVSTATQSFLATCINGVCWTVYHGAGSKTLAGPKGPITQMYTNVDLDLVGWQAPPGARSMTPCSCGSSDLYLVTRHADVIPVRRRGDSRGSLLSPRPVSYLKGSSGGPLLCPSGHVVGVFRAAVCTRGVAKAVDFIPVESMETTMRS

`CC(C)=CCOc1ccc(C2=C(CC(C)C)C(=O)OC2=O)cc1` [Compound 1, 3-isobutyl-4-[4-(3-methyl-2-butenyloxy)phenyl]furan-2,5-dione]: on HCV NS3/4A protease (compound 1 at 0, 5 and 10 μg/ml, substrate 10, 50, 100 and 200 times dilution), the “mode of HCV PR inhibition (Lineweaver-Burk plot)” value is listed as “competitive”. Also, the IC50 at HCV NS3/4A protease is 2.86 µM.
As to `CC(C)=CCOc1ccc(C2=C(CC(C)C)C(=O)NC2=O)cc1` [Compound 2, 3-isobutyl-4-[4-(3-methyl-2-butenyloxy)phenyl]-1H-pyrrol-2,5-dione], at HCV NS3/4A protease, the IC50 is above 319 µM.
For the molecule `CC(C)=CCOc1ccc(C2=C(CC(C)C)C(=O)N(O)C2=O)cc1` [Compound 3, 3-isobutyl-4-[4-(3-methyl-2-butenyloxy)phenyl]-1H-pyrrol-1-ol-2,5-dione], the IC50 at HCV NS3/4A protease is 8.8 µM. The protective activity entry in data set [1] is recorded as “showed protective activity”. Further, the “detection of parent compound in the body” value in data set [2] (after absorption) was “could not be detected in the body after absorption”. For the same molecule, the absorption entry in data set [2] (gastrointestinal tract) is listed as “quickly absorbed from the gastrointestinal tract”. Moreover, the metabolization result in data set [2] (liver) was “rapid and complete metabolization in liver”. For the same molecule, in data set [2] (metabolites: compounds 1, 2, 6, 7a, 7b and an analogue of compound 8), the “in vivo metabolism (metabolites formed)” value is recorded as “converted to six metabolites”.
For the molecule `CC(C)=CCOc1ccc(C2C(=O)N(O)C(=O)C2CC(C)C)cc1` (centres unmarked) [Compound 4, 3R*,4S*-1-hydroxy-3-isobutyl-4-[4-(3-methyl-2-butenyloxy)phenyl]pyrrolidine-2,5-dione], the IC50 on HCV NS3/4A protease was 60.3 µM.
As for `CC(C)=CCOc1ccc(C2C(=O)N(O)C(=O)C2CC(C)C)cc1` (centres unmarked) [Compound 5, 3R*,4R*-1-hydroxy-3-isobutyl-4-[4-(3-methyl-2-butenyloxy)phenyl]pyrrolidine-2,5-dione], the IC50 on HCV NS3/4A protease was 60.6 µM.
On the same count and under the same terms, under `CC(C)=CCOc1ccc(/C(C(=O)O)=C(\CC(C)C)C(=O)O)cc1` [Compound 6, (2Z)-2-isobutyl-3-{4-[(3-methylbut-2-en-1-yl)oxy]phenyl}but-2-enedioic acid] stands 19.9 µM; under `CC(C)=CCOc1ccc(/C(C(=O)NCC(=O)O)=C(\CC(C)C)C(=O)O)cc1` [Compound 8], 148 µM; under `CCCCCCCCCCCC1=C(O)C(=O)C=C(O)C1=O` [Embelin, reference compound], 13.9 µM.

These data come from patent US8772329B2, “Compounds from mycelium of Antrodia cinnamomea and use thereof” (Simpson Biotech Co., Ltd., priority 2008, dated 2014).
